Patent US20250213593A1, “Use of Derivatives based on Sarsasapogenin Structure and Pharmaceutical Compositions thereof” (BEIJING PHYTOVENT PHARMACEUTICAL TECHNOLOGY CO., LTD., priority 2022, published 2025)

Assays:
[1] = test system: SARS-CoV-2 pseudovirus (HEK293T cells); format: cell-based
[2] = test system: C57BL/6 mice modeled with MPTP; assay: PD mouse model (MPTP); format: in vivo; conditions: 80 mpk, 15 days; vs model group, T-test
Method: • Experimental and analytical method: mice of C57BL/6 strain were used in this experiment, which were divided into 5 groups, including a normal control group (no injection of MPTP), a model group (modeling with MPTP), and treatment groups of three small molecules (Embodiment 13B, Embodiment 25A, and Embodiment 25B). The drug was administered at the same time as modeling was made. The modeling lasted for 5 days, followed by 30 mpk intraperitoneal injection till lasting for 15 days, and lasted for 15 days at 80 mpk. At the endpoint, the brain was soaked and fixed in PFA after cardiac perfusion, and transferred to sucrose dehydration after complete fixation, and OCT embedding and sectioning were used for TH staining after complete dehydration. The detection indicator was the number of TH-positive cells in the substantia nigra. The more positive cells, the better the protection effect of small molecules against MPTP damage. • Results: there were 12 mice in each group, and the statistical results were shown in FIG. 50, T-test, **: p<0.01, #: p<0.05.

[3] = test system: transgenic AD rat model (human APP mutant protein, SD rats); assay: T-maze test of AD rats; format: in vivo; conditions: model vs administration group
Method: The T-maze test had four stages: I. in an acclimatization stage, food was placed in both arms, and valves on both arms were opened. Each rat was trained twice. All rats entered the next stage after they had eaten the food on both sides within 5 min twice. II. In a forced training stage, a valve on one side was closed first, and the rats were allowed to eat the food on the opposite side. A valve on the opposite side was closed again, and the rats were allowed to eat the food on the other side. This was a training process. Each animal was trained 4 times a day for 3 days. III.
In an optional training stage, the valve on one side was closed in half first, and the rats were allowed to eat the food on the opposite side. All the valves were then closed. If the rats went to the other side, they could finish eating the food there. If the rats went to the same side, there was no food here, and they were closed on this side for 30 s. This was a training process. Each animal was trained 4 times a day until the accuracy rate exceeded 75% for 2 consecutive days and proceeded to the next stage. IV.
In a delayed optional test stage, it was basically the same as the operation of the III stage, except that interval time was added after the forced training stage and before the optional training stage. The interval time was set to 1.5 min, 3 min, and 10 min. Test was performed for 4 times at each time.

[4] = test system: mice with ulcerative colitis induced by 3.0% DSS; assay: DSS mouse enteritis model; format: in vivo; conditions: 80 mpk oral gavage once a day, 9 days
From the text: 60 mice in good health were divided into 6 groups according to body weight, with 10 mice in each group: a normal control group, a model group, a positive drug group, and groups of different test products (Embodiment 13B, Embodiment 33, and Embodiment 34, at a dosage of 80 mpk each). In addition to the normal control group, the mice in other groups were administrated with a 3.0% DSS solution to drink freely, and consecutively modeled for 8 days. The normal control group was administrated with autoclaved filtered water to drink freely. The drug was administered on the day of modeling, and a test product was administered by oral gavage according to a designed dosage, once a day for 9 consecutive days. […] On the next day after the last administration, after deep anesthesia with CO2, cardiac blood and plasma were collected, and cryopreserved at −80° C. Subsequently, the abdominal cavity was dissected, the liver was removed and cryopreserved at −80° C. Finally, the entire colon tissue was removed, the colon length was measured, photographs were taken, and the colon content was washed with normal saline after dissection along the mesenteric side and weighed.

ICR mice = assay: Sleep of mice at subthreshold hypnotic dosage of sodium pentobarbital; format: in vivo, mouse; conditions: single oral gavage, high-, medium- and low-dosage; vs blank control
Method: After adaptive feeding of mice, 50 qualified animals were selected according to their body weights and divided into 5 groups by Excel complete randomization: a blank control group, a positive control group (Diazepam), and high-, medium- and low-dosage groups of test product, with 10 animals in each group. Animals in each group should be administrated with drug solutions and vehicles. After 1 h of administration, the animals in each group were intraperitoneally injected with a maximum subthreshold dosage of sodium pentobarbital (firstly, a pre-experiment was conducted to determine a maximum subthreshold hypnotic dosage of sodium pentobarbital).

[5] = test system: OCI-LY3 (human diffuse large B-cell lymphoma cells); assay: Cell proliferation assay, OCI-LY3; format: cell-based; conditions: Homo sapiens, OCI-Ly3, 72 h
Method: • Experimental and analytical method: cells were inoculated into a 96-well cell culture plate with a lid at a maximum concentration of 10 μM for a test compound, and diluted in three folds to a series of test concentrations, and cells were incubated at 37° C., 5% CO2 for 72 h. The concentration of DMSO was 0.5%, 100 μl of medium was taken from each well. 100 μl of reagent (Celltitute Glo Assay Kit) was added to each well, and a flat plate was shaken on a plate shaker (protected from light) for 2 min. A culture plate was incubated (protected from light) at room temperature for 30 min. Chemiluminescence values were recorded by a multi-plate plate reader, and the experimental results were as follows:
U937 (histiocytic lymphoma cells), OCI-LY3 (human diffuse large B-cell lymphoma cells), U2932 (human diffuse large B-cell lymphoma cells), and HT cells (human mixed lymphoma cells) were analyzed in the table for experimental analysis of cell proliferation.

Compound: C[C@H]1CC[C@@]2(OC1)O[C@H]1C[C@@H]3[C@H](CC[C@H]4[C@H]3CC[C@@H]3C[C@H](NC(=O)CC(=O)N5CCN(CCN(C)C)CC5)CC[C@@]34C)[C@H]1[C@@H]2C [Embodiment 13b]
- mitochondrial fragmentation after pseudovirus infection [1]: not fragmented
- number of TH-positive cells in the substantia nigra [2]: statistically significant differences
- working memory in delayed optional T-maze test ([3]; interval 1.5 min, administered from 7 to 15 months of age): no significant difference
- working memory in delayed optional T-maze test ([3]; interval 3 min): no significant difference
- working memory in delayed optional T-maze test ([3]; interval 10 min): working memory of the administration group also persisted
- colon length [4]: could increase the weights and lengths of the colons
- colon weight [4]: could increase the weights and lengths of the colons
- general conditions of DSS colitis mice [4]: certain improvement effects
- sleep latency (ICR mice): could shorten the sleep latency of the mice, which had a certain dosage-response relationship, but no statistically significant difference
- sleep time (ICR mice): could prolong the sleep time of the mice, but there was no statistically significant difference
- IC50 [5]: 4.39 µM
